Test results as given in patent US5840999A, “Asymmetric benzoxanthene dyes” (The Perkin-Elmer Corporation, priority 1997, dated 1998).

Legend:
Type in all cases: physicochemical
[1] = Relative brightness at λmax Em with 514 nm excitation; conditions: pure dye isomer 2, approximately equal concentrations (λmax Abs=0.05)
Procedure: (§1) See FIGS. 1 and 2 for the structures of the dyes referred to in the table. All data are reported for pure dye isomer 2. All emission spectra were recorded in 1×TBE buffer at pH 8.4 in dye solutions having an absorbance of 0.05 at λmax Abs (ca. 1×10^-6 M) at room temperature. Photodecomposition rate was determined for equal volumes of the dyes at initially 1 absorption unit at λmax Abs and run in pairs at equal volumes under equal high intensity white light irradiation at 35° C. in 1×TBE buffer pH 8.4. […] (λmax Abs=0.05).

[2] = Photodecomposition under high intensity white light; conditions: pure dye isomer 2, 35° C., 1×TBE buffer pH 8.4, from t1/2 for loss of dye
Procedure: as §1

[3] = Stability in concentrated NH4OH at 60° C.; conditions: pure dye isomer 2, concentrated ammonia hydroxide, sealed vials, first order fit
Procedure: as §1

[4] = Emission spectra of pure dyes (Table II); conditions: pure dye isomer 2, room temperature; for λmax Em: 1×TBE buffer pH 8.4, absorbance 0.05 at λmax Abs; for Width at Half Height: emission spectrum in 1×TBE buffer pH 8.4

Row | Substance | Relative Brightness [1] | Relative Photostability [2] | Stability in NH4OH - t1/2 [3] | λmax Em [4] | Width at Half Height [4]
1 | 6-carboxy-4,7,2',4',5',7',-hexachlorofluorescein | 2.4 | 17 | 11 h | 550 nm | 32 nm
2 | TAMRA | 0.9 | – | 1.3 h | 577 nm | 39 nm
